Reference: the NIST ThermoML archive (doi:10.1021/je020195l)
Numbers after ± are expanded uncertainties.

What was measured:
[1] = excess molar enthalpy (molar enthalpy of mixing); xn = mol fraction of the nth substance listed; settings: Liquid, Flow calorimetry
[2] = activity coefficient (dimensionless); of the first substance listed, at infinite dilution; xn = mol fraction of the nth substance listed; settings: 101 kPa, Liquid, x1 = 0

Work on `CCOC(C)OCC` [1,1-diethoxyethane] + C1CCCCC1 yielded an excess molar enthalpy ([1]; 323.15 K, 1308 kPa, x2 = 0.0648) of 0.0271 ± 0.000645 kcal/mol, an excess molar enthalpy ([1]; 323.15 K, 1308 kPa, x2 = 0.1277) of 0.0506 ± 0.00115 kcal/mol and an excess molar enthalpy ([1]; 323.15 K, 1308 kPa, x2 = 0.1887) of 0.0712 ± 0.00158 kcal/mol. The excess molar enthalpy ([1]; 323.15 K, 1308 kPa, x2 = 0.2478) was 0.0882 ± 0.00194 kcal/mol, the excess molar enthalpy ([1]; 323.15 K, 1308 kPa, x2 = 0.3052) was 0.103 ± 0.00225 kcal/mol and the excess molar enthalpy ([1]; 323.15 K, 1308 kPa, x2 = 0.3609) was 0.114 ± 0.00239 kcal/mol. It also gave an excess molar enthalpy ([1]; 323.15 K, 1308 kPa, x2 = 0.415) of 0.123 ± 0.00263 kcal/mol, an excess molar enthalpy ([1]; 323.15 K, 1308 kPa, x2 = 0.4676) of 0.129 ± 0.00287 kcal/mol and an excess molar enthalpy ([1]; 323.15 K, 1308 kPa, x2 = 0.5188) of 0.132 ± 0.00287 kcal/mol. It also gave an excess molar enthalpy ([1]; 323.15 K, 1308 kPa, x2 = 0.5685) of 0.133 ± 0.00287 kcal/mol, an excess molar enthalpy ([1]; 323.15 K, 1308 kPa, x2 = 0.6169) of 0.13 ± 0.00287 kcal/mol and an excess molar enthalpy ([1]; 323.15 K, 1308 kPa, x2 = 0.664) of 0.126 ± 0.00263 kcal/mol. The excess molar enthalpy ([1]; 323.15 K, 1308 kPa, x2 = 0.7099) was 0.12 ± 0.00263 kcal/mol, the excess molar enthalpy ([1]; 323.15 K, 1308 kPa, x2 = 0.7546) was 0.111 ± 0.00239 kcal/mol and the excess molar enthalpy ([1]; 323.15 K, 1308 kPa, x2 = 0.7981) was 0.0986 ± 0.00215 kcal/mol. For the same compound, the excess molar enthalpy ([1]; 323.15 K, 1308 kPa, x2 = 0.8405) was 0.0849 ± 0.00186 kcal/mol, the excess molar enthalpy ([1]; 323.15 K, 1308 kPa, x2 = 0.8819) was 0.0681 ± 0.00151 kcal/mol and the excess molar enthalpy ([1]; 323.15 K, 1308 kPa, x2 = 0.9222) was 0.0481 ± 0.0011 kcal/mol. The excess molar enthalpy ([1]; 323.15 K, 1308 kPa, x2 = 0.9616) was 0.0261 ± 0.000621 kcal/mol.

For `C1CCCCC1` [cyclohexane] + CCOC(C)OCC, the activity coefficient ([2]; 293.08 K) was 1.76 ± 0.13, the activity coefficient ([2]; 303.18 K) was 1.72 ± 0.12 and the activity coefficient ([2]; 313.12 K) was 1.67 ± 0.12. It also gave an activity coefficient ([2]; 323.14 K) of 1.64 ± 0.12.

`CCOC(C)OCC` [1,1-diethoxyethane] + c1ccccc1 gave an excess molar enthalpy ([1]; 323.15 K, 1308 kPa, x2 = 0.0778) of -0.00197 ± 0.000201 kcal/mol, an excess molar enthalpy ([1]; 323.15 K, 1308 kPa, x2 = 0.1511) of -0.00364 ± 0.000213 kcal/mol and an excess molar enthalpy ([1]; 323.15 K, 1308 kPa, x2 = 0.2204) of -0.00483 ± 0.000225 kcal/mol. For the same compound, the excess molar enthalpy ([1]; 323.15 K, 1308 kPa, x2 = 0.286) was -0.0057 ± 0.000239 kcal/mol, the excess molar enthalpy ([1]; 323.15 K, 1308 kPa, x2 = 0.3481) was -0.00617 ± 0.000239 kcal/mol and the excess molar enthalpy ([1]; 323.15 K, 1308 kPa, x2 = 0.4071) was -0.0064 ± 0.000239 kcal/mol. The excess molar enthalpy ([1]; 323.15 K, 1308 kPa, x2 = 0.4631) was -0.0064 ± 0.000239 kcal/mol, the excess molar enthalpy ([1]; 323.15 K, 1308 kPa, x2 = 0.5165) was -0.00619 ± 0.000239 kcal/mol and the excess molar enthalpy ([1]; 323.15 K, 1308 kPa, x2 = 0.5672) was -0.00577 ± 0.000239 kcal/mol. For the same compound, the excess molar enthalpy ([1]; 323.15 K, 1308 kPa, x2 = 0.6157) was -0.00527 ± 0.000232 kcal/mol, the excess molar enthalpy ([1]; 323.15 K, 1308 kPa, x2 = 0.6619) was -0.0045 ± 0.00022 kcal/mol and the excess molar enthalpy ([1]; 323.15 K, 1308 kPa, x2 = 0.7061) was -0.00365 ± 0.000213 kcal/mol. The excess molar enthalpy ([1]; 323.15 K, 1308 kPa, x2 = 0.7484) was -0.00277 ± 0.000206 kcal/mol, the excess molar enthalpy ([1]; 323.15 K, 1308 kPa, x2 = 0.7889) was -0.00181 ± 0.000198 kcal/mol and the excess molar enthalpy ([1]; 323.15 K, 1308 kPa, x2 = 0.8278) was -0.000703 ± 0.000191 kcal/mol. The excess molar enthalpy ([1]; 323.15 K, 1308 kPa, x2 = 0.865) was 7.17e-06 kcal/mol, the excess molar enthalpy ([1]; 323.15 K, 1308 kPa, x2 = 0.9008) was 0.000676 ± 0.000191 kcal/mol and the excess molar enthalpy ([1]; 323.15 K, 1308 kPa, x2 = 0.9351) was 0.00116 ± 0.000194 kcal/mol. The excess molar enthalpy ([1]; 323.15 K, 1308 kPa, x2 = 0.9682) was 0.00114 ± 0.000194 kcal/mol.

Compound `c1ccccc1` [benzene] + CCOC(C)OCC has an activity coefficient ([2]; 293.21 K) of 0.64 ± 0.05, an activity coefficient ([2]; 303.16 K) of 0.58 ± 0.05 and an activity coefficient ([2]; 313.11 K) of 0.56 ± 0.05. It also gave an activity coefficient ([2]; 323.13 K) of 0.62 ± 0.05.

Compound `CCC(C)(OC)OC` [2,2-dimethoxybutane] + C1CCCCC1 has an excess molar enthalpy ([1]; 303.15 K, 1204 kPa, x2 = 0.0623) of 0.0257 ± 0.000621 kcal/mol, an excess molar enthalpy ([1]; 303.15 K, 1204 kPa, x2 = 0.1229) of 0.0471 ± 0.00108 kcal/mol and an excess molar enthalpy ([1]; 303.15 K, 1204 kPa, x2 = 0.1821) of 0.0671 ± 0.00148 kcal/mol. The excess molar enthalpy ([1]; 303.15 K, 1204 kPa, x2 = 0.2397) was 0.0844 ± 0.00186 kcal/mol, the excess molar enthalpy ([1]; 303.15 K, 1204 kPa, x2 = 0.296) was 0.0985 ± 0.00215 kcal/mol and the excess molar enthalpy ([1]; 303.15 K, 1204 kPa, x2 = 0.3509) was 0.11 ± 0.00239 kcal/mol. The excess molar enthalpy ([1]; 303.15 K, 1204 kPa, x2 = 0.4045) was 0.119 ± 0.00263 kcal/mol, the excess molar enthalpy ([1]; 303.15 K, 1204 kPa, x2 = 0.4568) was 0.125 ± 0.00263 kcal/mol and the excess molar enthalpy ([1]; 303.15 K, 1204 kPa, x2 = 0.5079) was 0.128 ± 0.00287 kcal/mol. It also gave an excess molar enthalpy ([1]; 303.15 K, 1204 kPa, x2 = 0.5578) of 0.129 ± 0.00287 kcal/mol, an excess molar enthalpy ([1]; 303.15 K, 1204 kPa, x2 = 0.6066) of 0.128 ± 0.00287 kcal/mol and an excess molar enthalpy ([1]; 303.15 K, 1204 kPa, x2 = 0.6542) of 0.123 ± 0.00263 kcal/mol. It also gave an excess molar enthalpy ([1]; 303.15 K, 1204 kPa, x2 = 0.7008) of 0.116 ± 0.00263 kcal/mol, an excess molar enthalpy ([1]; 303.15 K, 1204 kPa, x2 = 0.7464) of 0.107 ± 0.00234 kcal/mol and an excess molar enthalpy ([1]; 303.15 K, 1204 kPa, x2 = 0.791) of 0.0956 ± 0.00208 kcal/mol. For the same compound, the excess molar enthalpy ([1]; 303.15 K, 1204 kPa, x2 = 0.8346) was 0.0821 ± 0.00182 kcal/mol, the excess molar enthalpy ([1]; 303.15 K, 1204 kPa, x2 = 0.8773) was 0.0657 ± 0.00146 kcal/mol and the excess molar enthalpy ([1]; 303.15 K, 1204 kPa, x2 = 0.919) was 0.0468 ± 0.00105 kcal/mol. It also gave an excess molar enthalpy ([1]; 303.15 K, 1204 kPa, x2 = 0.9599) of 0.0259 ± 0.000621 kcal/mol.

With `CCC(C)(OC)OC` [2,2-dimethoxybutane] + c1ccccc1 the excess molar enthalpy ([1]; 303.15 K, 1342 kPa, x2 = 0.0747) was 0.00416 ± 0.000217 kcal/mol, the excess molar enthalpy ([1]; 303.15 K, 1342 kPa, x2 = 0.1456) was 0.00676 ± 0.000263 kcal/mol and the excess molar enthalpy ([1]; 303.15 K, 1342 kPa, x2 = 0.213) was 0.00906 ± 0.000287 kcal/mol. The excess molar enthalpy ([1]; 303.15 K, 1342 kPa, x2 = 0.2772) was 0.0109 ± 0.000335 kcal/mol, the excess molar enthalpy ([1]; 303.15 K, 1342 kPa, x2 = 0.3383) was 0.0128 ± 0.000359 kcal/mol and the excess molar enthalpy ([1]; 303.15 K, 1342 kPa, x2 = 0.3966) was 0.0141 ± 0.000382 kcal/mol. The excess molar enthalpy ([1]; 303.15 K, 1342 kPa, x2 = 0.4523) was 0.0151 ± 0.000406 kcal/mol, the excess molar enthalpy ([1]; 303.15 K, 1342 kPa, x2 = 0.5056) was 0.0159 ± 0.00043 kcal/mol and the excess molar enthalpy ([1]; 303.15 K, 1342 kPa, x2 = 0.5565) was 0.0165 ± 0.00043 kcal/mol. It also gave an excess molar enthalpy ([1]; 303.15 K, 1342 kPa, x2 = 0.6053) of 0.0167 ± 0.00043 kcal/mol, an excess molar enthalpy ([1]; 303.15 K, 1342 kPa, x2 = 0.6521) of 0.0165 ± 0.00043 kcal/mol and an excess molar enthalpy ([1]; 303.15 K, 1342 kPa, x2 = 0.697) of 0.0162 ± 0.00043 kcal/mol. The excess molar enthalpy ([1]; 303.15 K, 1342 kPa, x2 = 0.7402) was 0.0155 ± 0.000406 kcal/mol, the excess molar enthalpy ([1]; 303.15 K, 1342 kPa, x2 = 0.7816) was 0.0145 ± 0.000406 kcal/mol and the excess molar enthalpy ([1]; 303.15 K, 1342 kPa, x2 = 0.8215) was 0.0131 ± 0.000359 kcal/mol. For the same compound, the excess molar enthalpy ([1]; 303.15 K, 1342 kPa, x2 = 0.8599) was 0.0112 ± 0.000335 kcal/mol, the excess molar enthalpy ([1]; 303.15 K, 1342 kPa, x2 = 0.8968) was 0.00927 ± 0.000311 kcal/mol and the excess molar enthalpy ([1]; 303.15 K, 1342 kPa, x2 = 0.9325) was 0.00651 ± 0.000239 kcal/mol.
